From EP4553077A1 (Kinoteck Therapeutics Co., Ltd, priority 2022, dated 2024)

How the values were obtained:
SNU16 cells = experiment: Proliferation inhibition, CCK-8 colorimetric method; format: cell-based
Procedure: (§1) CCK-8 (Bimake/B34304) colorimetric method was used to detect the in vitro proliferation inhibitory effect of compounds on suspended or adherent cells in this experiment. The specific experimental steps were as follows: • 1) Cell plating: SNU16 and A204 tumor cells (cells from Shanghai Institute of Organic Chemistry, Chinese Academy of Sciences) in the logarithmic growth phase were digested and centrifuged for trypan blue counting, and the cells were seeded into a transparent 96 well plate at a density of 4000 cells/100 µ 1/well. […] The test compound and control compound stock solution were diluted with the corresponding culture medium required for cell culture (with or without solvent DMSO) to obtain a series of working solutions, with concentrations of twice the final concentration. The solvent DMSO contents in each concentration group were consistent with that of the solvent control group. The final concentration of A204 cells started at 10 µM and was diluted twice.
(§2) Calculation of cell survival rate: Cell survival rate (%)=[(As-Ac)/(Ab-Ac)] × 100%] (As: experimental well; Ab: Solvent control well; Ac: Blank well).

A204 cells = experiment: as above; format: cell-based; details: 72 h
Procedure: as §1, §2

Ba/F3-TEL-FGFR2 = Ba/F3-TEL-FGFR2 (Homo sapiens, UniProt P21802+P41212); experiment: Cell viability (proliferation inhibition) of Ba/F3 cells, CellTiter Glo; details: read-out: Ba/F3 cell FGFR2 (IC50 nM), 72 h
Ba/F3-TEL-FGFR2, sequence (P21802 481-770 limits assumed, one chain of several): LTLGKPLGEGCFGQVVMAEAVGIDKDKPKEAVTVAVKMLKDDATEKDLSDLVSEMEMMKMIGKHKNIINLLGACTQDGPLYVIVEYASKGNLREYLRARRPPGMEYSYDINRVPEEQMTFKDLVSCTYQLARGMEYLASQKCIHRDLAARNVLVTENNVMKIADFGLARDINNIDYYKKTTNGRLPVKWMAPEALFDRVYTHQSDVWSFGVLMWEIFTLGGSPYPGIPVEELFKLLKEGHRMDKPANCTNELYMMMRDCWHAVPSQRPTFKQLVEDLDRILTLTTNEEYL

Ba/F3-TEL-FGFR1 = Ba/F3-TEL-FGFR1 (Homo sapiens, UniProt P11362+P41212); experiment: as above; details: read-out: Ba/F3 cell FGFR1 (IC50 nM), 72 h
Ba/F3-TEL-FGFR1, sequence (P11362 478-767 limits assumed, one chain of several): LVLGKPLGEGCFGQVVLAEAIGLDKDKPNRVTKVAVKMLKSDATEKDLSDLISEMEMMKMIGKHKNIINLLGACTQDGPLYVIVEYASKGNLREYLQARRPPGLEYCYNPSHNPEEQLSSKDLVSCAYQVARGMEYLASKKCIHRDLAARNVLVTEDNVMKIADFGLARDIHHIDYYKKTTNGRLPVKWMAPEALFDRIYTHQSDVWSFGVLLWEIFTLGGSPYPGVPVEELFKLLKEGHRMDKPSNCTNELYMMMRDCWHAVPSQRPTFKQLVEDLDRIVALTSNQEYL

[1] = Pharmacokinetic test in rats; format: in vivo, male SD rats; details: rat, plasma, oral gavage administration, 10 mg/kg
Procedure: Rat pharmacokinetic experiments were performed using male SD rats, 180-220g, provided by Beijing Vital River Laboratory Animal Technology Co., Ltd. 3 rats that were fasted overnight were taken, and administered orally by gavage (10 mg/kg). Blood samples were collected before administration, as well as 5, 15, 30 min and 1, 2, 4, 6, 8, 24 h after administration; another 3 rats were taken and administered intravenously (1 mg/kg), blood samples were collected before administration, as well as 5, 15, 30 min and 1, 2, 4, 6, 8, 24 h after administration. Blood sample was centrifuged at 6800g, 2-8 °C for 6 min, and plasma was collected, and stored at -80 °C. Plasma of each time point was taken, 10 times the amount of 50% methanol acetonitrile solution containing internal standard was added, and mixed by vortex for 5 min, centrifuged at 18000 rpm at 4 °C for 10 min, and the supernatant was taken directly for LC-MS/MS analysis. The main pharmacokinetic parameters were analyzed using WinNonlin8.2 software for non compartmental model analysis. Table 3: pharmacokinetic test in rats results of test compounds

Compound | IC50 (Ba/F3-TEL-FGFR2) [nM] | IC50 (Ba/F3-TEL-FGFR1) [nM] | further results
CCN1CCN(c2ccc(Nc3cc(N(C)C(=O)Nc4c(Cl)c(OC)cc(OC)c4Cl)ncn3)cc2)CC1 [BGJ398, reference compound] |  |  | IC50 (SNU16 cells; Homo sapiens, SNU-16, 72 h): 4.3 nM; IC50 (A204 cells; Homo sapiens): 100 nM
C=C(F)C(=O)Nc1ccc(-c2c(-c3ccc(N=S4(=O)CCCC4)c(F)c3)c3c(N)ncnc3n2C)cc1 [Compound 21, N-(4-(4-amino-5-(3-fluoro-4-((1-oxotetrahydro-1 λ^6-thiophene-1-ylidene)amino)phenyl) -7-methyl-7H-pyrrolo [2,3-d]pyrimidin-6-yl)phenyl) -2-fluoroacrylamide] | 0.8 |  | IC50 (SNU16 cells; Homo sapiens, SNU-16, 72 h): 1.72 nM; IC50 (A204 cells; Homo sapiens): 333 nM
C=C(C)C(=O)Nc1ccc(-c2c(-c3ccc(N=S4(=O)CCCC4)cc3)c3c(N)ncnc3n2C)cc1 [Compound 31] | 8.3 | 2090 | 
C=C(C)C(=O)Nc1ccc(-c2c(-c3ccc(N=S(=O)(N(C)C)C(F)(F)F)cc3)c3c(N)ncnc3n2C)c(F)c1 (centres unmarked) [Compound 32] | 0.4 |  | IC50 (SNU16 cells; 72 h): 9.56 nM; IC50 (A204 cells): 2250 nM
CC#CC(=O)Nc1ccc(-c2c(-c3ccc(N=S4(=O)CCCCC4)c(F)c3)c3c(N)ncnc3n2C)cc1 [Compound 35, N-(4-(4-amino-5-(3-fluoro-4-((1-oxotetrahydro-2H-1 λ^6-thiopyran-1-ylidene)amino)phenyl) -7-methyl-7H-pyrrolo [2,3-d]pyrimidin-6-yl)phenyl) but-2-ynamide] | 4.4 |  | IC50 (SNU16 cells; Homo sapiens, SNU-16, 72 h): 4.91 nM; IC50 (A204 cells; Homo sapiens): 406 nM
C=C(C)C(=O)Nc1ccc(-c2c(-c3ccc(N=S4(=O)CCCC4)c(F)c3)c3c(N)ncnc3n2C)c(C(F)F)c1 [Compound 59, N-(4-(4-amino-5-(3-fluoro-4-((1-oxotetrahydro-1 λ^6-thiophene-1-ylidene)amino)phenyl) -7-methyl-7H-pyrrolo [2,3-d]pyrimidin-6-yl) -3-(difluoromethyl)phenyl) methacrylamide] | 7.8 | 1320 | 
C=C(C)C(=O)Nc1ccc(-c2c(-c3ccc(N=S4(=O)CC(C)(C)C4)cc3)c3c(N)ncnc3n2C)c(F)c1 [Compound 63] | 1.1 | 396 | AUC(0-t) [1]: 1700 ng·h/mL; Cmax [1]: 556 ng/mL; Tmax [1]: 0.5 h; half-life [1]: 2.59 h
C=C(C)C(=O)Nc1ccc(-c2c(-c3ccc(N=S4(=O)CCC4)c(F)c3)c3c(N)ncnc3n2C)c(C)c1 [Compound 70] | 2.7 | 775 | 
C=C(C)C(=O)Nc1ccc(-c2c(-c3ccc(N=S4(=O)CCC4)c(F)c3)c3c(N)ncnc3n2C)c(F)c1 [Compound 75] | 0.8 | 701 | 
C=C(C)C(=O)Nc1ccc(-c2c(-c3cc(F)c(N=S4(=O)CCC4)cc3F)c3c(N)ncnc3n2C)c(F)c1 [Compound 77, N-(4-(4-amino-5-(2,5-difluoro-4-((1-oxo-1λ^6-thiocyclobutan-1-ylidene)amino)phenyl) -7-methyl-7H-pyrrolo [2,3-d]pyrimidin-6-yl) -3-fluorophenyl) methacrylamide] | 4.7 | 884 | 
[2H]C([2H])([2H])n1c(-c2ccc(NC(=O)C(=C)C)cc2F)c(-c2ccc(N=S3(=O)CCCC3)c(Cl)c2)c2c(N)ncnc21 [Compound 82, N-(4-(4-amino-5-(3-chloro-4-((1-oxidetetrahydro-1λ^6-thiophene-1-ylidene)amino)phenyl)-7-(methyl-d3)-7H-pyrrolo[2,3-d]pyrimidin-6-yl)-3-fluorophenyl) methacrylamide] | 0.8 | 484 | 
[2H]C([2H])([2H])n1c(-c2ccc(NC(=O)C(=C)C)cc2Cl)c(-c2ccc(N=S3(=O)CCC3)c(F)c2)c2c(N)ncnc21 [Compound 84, N-(4-(4-amino-5-(3-fluoro-4-(1-oxo-1λ^6-thietan-1-imino)phenyl)-7-(methyl-d3)-7H-pyrrolo[2,3-d]pyrimidin-6-yl)-3-chlorophenyl)methacrylamide] | 0.8 | 250 | 
C=C(C)C(=O)Nc1ccc(-c2c(-c3ccc(N=S4(=O)CCCC4)c(C)c3)c3c(N)ncnc3n2C)c(F)c1 [Compound 87, N-(4-(4-amino-7-methyl-5-(3-methyl-4-((1-tetrahydro-1λ^6-thiophene-1-ylidene)amino)phenyl) -7H-pyrrolo [2,3-d]pyrimidin-6-yl) -3-fluorophenyl) methacrylamide] | 2.1 | 666 | 
C=C(C)C(=O)Nc1ccc(-c2c(-c3ccc(N=S4(=O)CCCC4)c(C(F)F)c3)c3c(N)ncnc3n2C)c(F)c1 [Compound 89, N-(4-(4-amino-5-(3-(difluoromethyl) -4-((1-tetrahydro-1λ^6-thiophene-1-ylidene)amino)phenyl) -7-methyl-7H-pyrrolo [2,3-d]pyrimidin-6-yl) -3-fluorophenyl) methacrylamide] | 6.5 | 686 | 
[2H]C([2H])([2H])n1c(-c2ccc(NC(=O)C(=C)C)cc2Cl)c(-c2ccc(N=S3(=O)CCC3)c(Cl)c2)c2c(N)ncnc21 [Compound 95, N-(4-(4-amino-5-(3-chloro-4-((1-oxo-1 λ^6-thietan-1-ylidene)amino)phenyl) -7-(methyl-d3) -7H-pyrrolo [2,3-d]pyrimidin-6-yl) -3-chlorophenyl) methacrylamide] | 0.7 | 484 | 
C=C(C)C(=O)Nc1ccc(-c2c(-c3ccc(N=S(=O)(CC)CC)c(F)c3)c3c(N)ncnc3n2C)c(C)c1 [Compound 101] | 4.7 |  | 
C=C(C)C(=O)Nc1ccc(-c2c(-c3ccc(N=S(=O)(CC)CC)cc3)c3c(N)ncnc3n2CC(F)(F)F)c(F)c1 [Compound 103] | 13.9 |  | 
C=C(C)C(=O)Nc1ccc(-c2c(-c3ccc(N=S4(=O)CCOCC4)cc3)c3c(N)ncnc3n2C)c(F)c1 [Compound 105] | 20.9 |  | 
C=C(C)C(=O)Nc1ccc(-c2c(-c3ccc(N=S4(=O)CC(C)(C)C4)c(F)c3)c3c(N)ncnc3n2C)c(F)c1 [Compound 106, N-(4-(4-amino-5-(4-((3,3-dimethyl-1-oxo-1 λ^6-thiocyclobutan-1-ylidene)amino) -3-fluorophenyl) -7-methyl-7H-pyrrolo [2,3-d]pyrimidin-6-yl) -3-fluorophenyl) methacrylamide] | 2.2 |  | 
C=C(C)C(=O)Nc1ccc(-c2c(-c3ccc(N=S(C)(C)=O)cc3)c3c(N)ncnc3n2C)c(F)c1 [Compound 107] | 15.6 | 3630 | 
[2H]C([2H])([2H])n1c(-c2ccc(NC(=O)C(=C)C)cc2F)c(-c2ccc(N=S3(=O)C=CC(C)(C)C3)cc2)c2c(N)ncnc21 (centres unmarked) [Compound 108, N-(4-(4-amino-5-(4-((3,3-dimethyl-1-oxo-1 λ^6-thiophene-1-ylidene)amino)phenyl) -7-(methyl-d3) -7H-pyrrolo [2,3-d]pyrimidin-6-yl) -3-fluorophenyl) methacrylamide] | 2.5 |  | 
C=CC(=O)Nc1ccc(-c2c(-c3ccc(N=S4(=O)CCCC4)cc3)c3c(N)ncnc3n2C)c(F)c1 [Compound 110] | 2 |  | 
C=C(F)C(=O)Nc1ccc(-c2c(-c3ccc(N=S4(=O)CCCC4)cc3)c3c(N)ncnc3n2C)c(F)c1 [Compound 111] | < 0.15 |  | 
CC#CC(=O)Nc1ccc(-c2c(-c3ccc(N=S4(=O)CCCC4)cc3)c3c(N)ncnc3n2C)c(F)c1 [Compound 112, N-(4-(4-amino-7-methyl-5-(4-((1-tetrahydro-1λ^6-thiophene-1-ylidene)amino)phenyl) -7H-pyrrolo [2,3-d]pyrimidin-6-yl) -3-fluorophenyl) but-2-ynamide] | 2 |  | 
[2H]c1cc(-c2c(-c3ccc(NC(=O)C(=C)C)cc3F)n(C)c3ncnc(N)c23)cc([2H])c1N=S1(=O)CCCC1 [Compound 113] | 1.8 |  | 
[2H]c1c([2H])c(-c2c(-c3ccc(NC(=O)C(=C)C)cc3F)n(C)c3ncnc(N)c23)c([2H])c([2H])c1N=S1(=O)CCCC1 [Compound 114, N-(4-(4-amino-7-methyl-5-(4-((1-oxidetetrahydro-1 λ^6-thiophene-1-ylidene)amino)phenyl-2,3,5,6-d4) -7H-pyrrolo [2,3-d]pyrimidin-6-yl) -3-fluorophenyl) methacrylamide] | 1.2 |  | 
N- (4- (4-amino-5- (4- (cyclopentyl (methyl) (oxo) - λ^6-sulfanylidene) amino) phenyl) -7-methyl-7H-pyrrole [2,3-d] pyrimidin-6-yl) -3-fluorophenyl) methacrylamide [Compound 49] | 12.8 |  | 
